The record followed here is ChEMBL document CHEMBL3813604, “Two pairs of farnesyl phenolic enantiomers as natural nitric oxide inhibitors from Ganoderma sinense” (Bioorg Med Chem Lett, 2016).

This assay has as its system RAW264.7. Briefly: Antiinflammatory activity in mouse RAW264.7 cells assessed as inhibition of LPS-induced nitric oxide production after 24 hrs by Griess assay. To be noted: RAW264.7, 24 h. Type of assay: functional, cell-based. For orientation: Griess reagent forms a coloured azo dye with nitrite.
`C/C(=C\CC/C(=C/CCC1=C[C@@H](c2cc(O)ccc2O)OC1=O)CO)COC(=O)/C=C/c1ccc(O)cc1`: the 50% inhibitory concentration (IC50) is 1150 nM.

`CO[C@@]1(c2cc(O)cc(O)c2)C=C(CC/C=C(\CO)CC/C=C(\C)COC(=O)/C=C/c2ccc(O)cc2)C(=O)O1`: the 50% inhibitory concentration (IC50) was 1510 nM.

For `C/C(=C\CC/C(=C/CCC1=C[C@H](c2cc(O)ccc2O)OC1=O)CO)COC(=O)/C=C/c1ccc(O)cc1`, the IC50 was 1420 nM.

With `CO[C@]1(c2cc(O)cc(O)c2)C=C(CC/C=C(\CO)CC/C=C(\C)COC(=O)/C=C/c2ccc(O)cc2)C(=O)O1`, the IC50 came to 2260 nM.

`C[C@]12CCC(=O)C=C1CC[C@@H]1[C@@H]2[C@@H](O)C[C@@]2(C)[C@H]1CC[C@]2(O)C(=O)CO` [HYDROCORTISONE]: the IC50 is 58800 nM.

In general, IC50 refers to the concentration at which inhibition is half-maximal.
